Biological target: BLyS (Homo sapiens, UniProt Q9Y275)
Assay: Fluorescence anisotropy determination of BLyS-ligand dissociation constants
Type: binding
Description: Dissociation constants between the synthetic peptides and BLyS (free in solution) were measured by fluorescence anisotropy (FA). In these experiments, the concentration of the fluorescein-labeled peptide is held constant and the BLyS protein concentration was varied. […] Binding reactions containing 50 nM fluorescein-labeled peptide and a varied concentration of BLyS in a volume between 10 and 20 μL per well were performed in 384 well microplates. Reactions were assayed using a Tecan Polarion fluorescence polarization plate reader. Cross-competition studies between peptides were performed using 50 nM fluorescein-labeled peptide and 1-2 μM BLyS in the presence and absence of 100 μM unlabeled peptide. […] Other buffers in which dissociation constants of BLyS Binding polypeptides were […] include: […] […] The KD of several BLyS binding BAML peptides was determined by fluorescence anisotropy, performed as previously described.

improvement in binding affinity for BLyS as compared to 453-01-B07 (compared to 453-01-B07 (SEQ ID NO:31))	decrease in affinity compared to DX814 (compared to DX814)	Substance
more than 10 fold		Ac-ANWYDSLTKLWLPDGGK-fitc [DX822]
	approximately 10 fold	Ac-ANWYDPLTKLSLPDGGK-fitc [DX818]

From patent publication US20070293434A9, “Binding polypeptides and methods based thereon” (priority 2000, published 2007)
